These results are taken from US20260027073A1, “USE OF SMALL-MOLECULE COMPOUND HAVING NAPHTHYLAMINE STRUCTURE” (HANGZHOU PHECDAMED CO., LTD., priority 2023, published 2026).

A short description of series [1]: In vitro liver microsomal stability test. How it is done:
Ketanserin was selected as the reference compound. The specific method was as follows:
0.1 M K3PO4 (pH 7.4) buffer and 3×NADPH stock solution (6 mM, 5 mg/mL) were configured and preheated in a 37° C. water bath; configuration of the test compounds and the control compounds (spiking solution): adding 5 μL of the compound stock solution ([…]) into 95 μL of acetonitrile; configuration of 1.5 μM spiking solution in microsomes (0.75 mg/mL): adding 1.5 μL of spiking solution and 18.75 μL of liver microsomal solution (20 mg/mL) into 479.75 μL of K3PO4 buffer; adding 30 μL of spiking solution in microsomes into the multiwell plate, and incubating at 37° C. for 5 min; adding 15 μL of NADPH storage solution into each well to start to react, and timing; adding 150 μL of acetonitrile solution containing IS at 0 min, 5 min, 15 min, 30 min, and 45 min, respectively, stopping the reaction; oscillating for 10 min, and then centrifuging at 6,000 rpm for 15 min; taking 80 μL of supernatant from each well for LC/MS detection, and calculating T1/2.
In general terms: Liver microsomes are a subcellular fraction often used to study metabolism.

For series [2], the system named is rats of type I diabetes nephropathy model. Kind of series: Kidney injury induced by type 1 diabetic nephropathy (STZ). The series is classed as in vivo, SD rats. How it is done:
150-170 g SD male rats were fasted but not deprived of water for 12 h before surgery, and a longitudinal incision was made at the intersection of the lower edge of the right rib arch, which was about 1 cm long. Then the three layers of skin, mucous membrane, and muscle were separated layer by layer to expose the perinephric fat, and the perinephric fat was clamped by hemostatic forceps and lifted upward to expose the right kidney, and the right kidney pedicle was ligated and the right kidney was resected, and after no hemorrhage was checked, the tissues were sutured layer by layer. One week after surgery, 1% streptozotocin (STZ) 50 mg/kg was injected intraperitoneally in a volume of […]. Rats in the sham group only had the abdominal cavity opened, the right renal adipose capsule was peeled off, and the right kidney was not resected; the abdominal cavity was closed, the incision was sutured and an equal volume of citrate solution was injected into the tail vein one week later.
Random blood glucose was measured 72 h after STZ injection, and blood glucose ≥16.65 mmol/L was considered as successful diabetes modeling. The successful modeling rats were selected to continue to be fed with normal chow and free water. […] The experiment was divided into sham group (sham group, without STZ modeling and given vehicle by oral gavage), Control group (model control group, STZ modeling and given vehicle treatment by oral gavage), and 15 mg/kg I-1 group (STZ modeling and given 15 mg/kg I-1 by oral gavage), and the dosage of the drug was administered once a day in the volume of 10 ml/kg for 27 days. […] At the end point of the experiment, the rats were euthanized, the kidneys were removed after dissection, and four kidneys were taken to be fixed with 4% paraformaldehyde for 48 h, paraffin-embedded, sectioned and HE stained, and the specific staining procedure was as described above.

The subject of series [3] is rats with 5/6 nephrectomy. Kind of series: 5/6 nephrectomy-induced renal injury. Type of series: in vivo, SD rats. How it is done:
5/6 nephrectomy directly leads to a large reduction of renal units, high workload of residual renal units, and combined hypertension (or non-hypertension), and these features are similar to the symptoms of patients with clinical nephrectomy, CKD hypertensive syndrome, and solitary kidney, and like, and the pathological changes are dominated by glomerulosclerosis and tubulo-fibrosis, which is a good model for the study of CKD. The model was prepared as follows, 230-250 g male SD rats were anesthetized with isoflurane gas, and an incision of about 3 cm at 1 cm left and below of the cribriform ridge corner was made, fully exposing the left kidney, and after exposing the kidney in the sham group, the muscle and skin were sutured with sutures, during which there was no ligation and no resection. In the model group, about ⅓ of the cortex of the upper and lower left kidney was cut with ophthalmic surgical scissors, and was pressed with the absorbable gelatin sponge to stop bleeding for 3 min, then the hemostatic clip was released, and whether there is obvious bleeding was observed and the residual kidney was reset, and the muscle and skin were sutured with sutures. After 1 week, the second surgery was performed, and after fully exposing the right kidney, the renal pedicle and the ureter were ligated, and the right kidney was resected. Similarly, in the sham group, after exposing the kidney, the muscle and skin were sutured with sutures, during which there was no ligation and no resection. Penicillin (80 kU/rat) was routinely injected for three days after surgery. […] In the experiment, 10 d after the end of the right nephrectomy surgery, the serum creatinine level of rats increased, which was statistically significant compared to the sham group, and began to be administered in groups.
The experiments were conducted in sham group (exposing both kidneys without resection), Control group (model group, given vehicle treatment by oral gavage), and 15 mg/kg I-1 group (15 mg/kg by oral gavage), respectively, during the experimental period, a drug was administered once a day for a total of 27 days, and the 24-hour urine of the rats in each group was collected by metabolism cages on the 28th day to measure the volume of urine, urine creatinine, and urine protein. At the same time, blood was collected from the heart, and the blood was centrifuged at 12000 g for 10 min at 4° C. after standing at room temperature for 45 min, the supernatant (serum) was taken to measure the creatinine level in the serum, and finally the creatinine clearance was calculated. After euthanasia of rats at endpoint of the test, the kidneys were dissected and removed, in which four kidneys of rats were fixed with 4% paraformaldehyde for 48 h, paraffin-embedded, sectioned, and HE stained as described above.

Where [4] appears, read: Degree of lesion +++ (severe lesions), 15 mg/kg.
Setting [5] is: Degree of lesion ± (slight lesions), 15 mg/kg.

Each structure is given as a SMILES string. “And” between values parts separate entries of the source, which are not always exact repeats. Equal entries are not always repeated.

Regarding `O=C(O)C[S+]([O-])c1cc(NS(=O)(=O)c2ccc(Br)cc2)c2ccccc2c1O` (stereo not shown) [I-1], the “liver microsomal stability (elimination half-life T1/2)” value in series [1] (microsomes) is “superior liver microsomal stability”. Moreover, the body weight entry is reported as “trend of increasing body weight” in series [2] (15 mg/kg oral gavage, 27 days, FIG. 14) and “significant increase” in series [3] (15 mg/kg oral gavage, 27 days, vs model group, P<0.05, FIG. 4). For the same molecule, the blood glucose level result in series [2] (15 mg/kg, 27 days, FIG. 16) is reported as “no significant effect”. In addition, the “24-h urine protein level” value in series [2] (15 mg/kg, 27 days, FIG. 17) is “decrease in the 24-h urine protein level of rats, but there was no significant difference”. The serum creatinine level entry in series [2] (15 mg/kg, 27 days, P<0.5 [sic], FIG. 15) is “significantly decreased”. The “degree of renal pathology (HE staining)” value in series [2] (15 mg/kg, 27 days, vs model group, FIG. 18) is given as “significant reduction”. For the same molecule, the “Renal lesion (number of kidneys, n = 4)” value is 3/4 and 3 in series [2] (Degree of lesion + (mild lesions), 15 mg/kg); 0 in series [2] (Degree of lesion ++ (moderate lesions), 15 mg/kg); 1/4 and 1 in series [2] (setting [4]); 0 in series [2] (setting [5]); 0 in series [2] (Degree of lesion − (no lesions), 15 mg/kg). Moreover, in series [3] (15 mg/kg oral gavage, 27 days, FIG. 6), the “24 h urine protein content” value is “significantly reduced”. The blood creatinine level entry in series [3] (15 mg/kg oral gavage, 27 days, P<0.001, FIG. 5) is “significantly reduced”. In series [3] (15 mg/kg, 27 days, FIG. 8), the “degree of lesions in the renal tissues (HE staining)” value was “improved the degree of lesions”. Moreover, the creatinine clearance rate entry in series [3] (15 mg/kg, 27 days, vs model control, FIG. 7) is on record as “improvement trend”. Besides, the “Renal lesions (number of kidneys, n = 4)” value in series [3] (setting [4]) is 0; in series [3] (setting [5]), 0; in series [3] (Degree of lesion − (no lesions seen), 15 mg/kg) it was 0.
With `O=C(O)CSc1cc(NS(=O)(=O)c2ccc(Br)cc2)c2ccccc2c1O` [UMI-77, reference compound], the “liver microsomal stability (elimination half-life T1/2)” value in series [1] (in vitro mouse or human liver microsomal environment, FIG. 19) is “unstable”. Besides, the “protection against kidney injury in type 1 diabetes compared with I-1 group” value in series [2] (UMI-77 vs I-1) was “less protective”. Also, the “protection against 5/6 nephrectomy-induced renal injury compared with I-1 group” value in series [3] (UMI-77 vs I-1) is “less protective”.
